Results on 42 molecules are retold here after PubChem BioAssay AID588503 (Sanford-Burnham Center for Chemical Genomics, 2011).

Molecules are shown by their SMILES. Several values for one entry are separate records, joined by “and”; a condition that tells them apart may be missing. Equal values may be shown once. Activity calls are given as the source filed them.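 The calls were made as follows: active = compounds whose mean half-maximal effective concentration EC50 is at most 20 µM; inactive = the rest.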

In the assay the target is G-protein coupled receptor 35 (Homo sapiens) (UniProt Q9HC97). The assay is described as follows: GPR35-driven beta-arrestin-GFP translocation by analogs – imaging, U2OS, selectivity assay for NTR1 agonist project, SAR follow-up (AID 588503).
Sequence of G-protein coupled receptor 35 (Homo sapiens) (Q9HC97 whole entry, looked up): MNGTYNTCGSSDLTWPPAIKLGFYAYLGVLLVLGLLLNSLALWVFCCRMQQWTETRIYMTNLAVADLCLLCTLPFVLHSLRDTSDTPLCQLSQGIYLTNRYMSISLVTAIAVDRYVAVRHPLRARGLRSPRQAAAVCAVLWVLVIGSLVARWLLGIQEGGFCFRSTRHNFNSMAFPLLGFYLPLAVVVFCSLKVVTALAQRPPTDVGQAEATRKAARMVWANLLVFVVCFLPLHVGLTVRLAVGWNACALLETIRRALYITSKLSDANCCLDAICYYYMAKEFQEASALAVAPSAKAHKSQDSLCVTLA
For orientation: EC50 means the concentration needed to bring the measured effect to its halfway point. In the case of `COc1ccccc1-c1cc(C(=O)N[C@@H](CC(C)C)C(=O)O)nn1-c1ccnc2cc(Cl)ccc12`, the EC50 is > 40 µM (inactive). The same measure for `Cc1cccc(C)c1-c1nc(C(=O)N[C@@H](CC(C)C)C(=O)O)cn1-c1ccnc2cc(Cl)ccc12`: > 40 µM (inactive); for `COc1cccc(N2CCN(c3ncnc4c3cnn4-c3ccc(C)cc3C)CC2)c1`: > 40 µM (inactive); for `COc1cc2c3nnc(-c4ccc(F)cc4)c-3cn(Cc3ccc(C)cc3)c2cc1OC`: 8.57 µM and 7.58 µM. The value for `COc1cc2nc(C3CCC3)nc(N3CCN(c4ccccc4OC)CC3)c2cc1OC` was > 40 µM (inactive); that for `COc1cc2nc(-c3ccccc3)nc(N3CCN(c4ccccc4OC)CC3)c2cc1OC` was > 40 µM (inactive); that for `COc1ccc(Cn2c(SCc3cc(C)ccc3C)nc3cc(OC)c(OC)cc3c2=N)cc1Cl` was > 40 µM (inactive). In the case of `COc1cccc(OC)c1-c1nc(C(=O)N[C@@H](CC(C)C)C(=O)O)cn1-c1ccnc2ccccc12`, the EC50 was > 40 µM (inactive). Regarding `COc1cccc(OC)c1-c1nc(C(=O)N[C@@H](CC(C)C)C(=O)O)cn1-c1cccc2ccccc12`, the EC50 is > 40 µM (inactive). The value for `COc1ccc(-c2nnc3c4cc(OC)c(OC)cc4n(Cc4ccc(C)cc4)cc2-3)cc1` was 6.26 µM; that for `CCOc1ccc(-c2nnc3c4cc(OC)c(OC)cc4n(Cc4ccc(C)cc4)cc2-3)cc1` was > 40 µM (inactive). The same measure for `COc1cc2c3nnc(-c4ccc(C)c(C)c4)c-3cn(Cc3ccccc3)c2cc1OC`: “inactive”; for `COc1cc2c3nnc(-c4ccc(F)cc4)c-3cn(Cc3cccc(C)c3)c2cc1OC`: 6.07 µM; for `Cc1ccc(-n2ncc3c(N4CCN(c5ccccc5)CC4)ncnc32)c(C)c1`: > 40 µM (inactive).

With `COc1cc2c3nnc(-c4ccc(Cl)cc4)c-3cn(Cc3ccccc3)c2cc1OC`, the EC50 was 10.5 µM. The same measure for `CCOc1ccc(-c2nnc3c4cc(OC)c(OC)cc4n(Cc4ccc(F)cc4)cc2-3)cc1`: “inactive”; for `COc1ccc(Cn2c(SCc3ccccc3C)nc3cc(OC)c(OC)cc3c2=N)cc1Cl`: > 40 µM (inactive). The same measure for `COc1cc2c3nnc(-c4ccc(Cl)cc4)c-3cn(Cc3ccc(C)cc3)c2cc1OC`: > 40 µM (inactive); for `COc1cccc(OC)c1-c1nc(C(=O)N[C@@H](CC(C)C)C(=O)O)cn1-c1ccnc2cc(Cl)ccc12`: > 40 µM (inactive). The value for `COc1ccccc1N1CCN(c2ncnc3c2cnn3-c2ccc(C)cc2C)CC1` was > 40 µM (inactive). As for `Cc1ccc(Cn2cc3c(-c4ccc(F)cc4)nnc-3c3cc4c(cc32)OCO4)cc1`, the EC50 was > 40 µM (inactive). The same measure for `COc1cc2c3nnc(-c4ccc(F)cc4)c-3cn(Cc3ccccc3)c2cc1OC`: 9.82 µM; for `COc1ccc(Cn2c(SCc3ccc(C)cc3)nc3cc(OC)c(OC)cc3c2=N)cc1Cl`: “inactive”. As to `CN(C)S(=O)(=O)c1ccc(-c2csc(N/N=C/c3ccco3)n2)cc1`, the EC50 is > 40 µM (inactive). The same measure for `COc1cc2c3nnc(-c4ccc(C)cc4)c-3cn(Cc3ccc(F)cc3)c2cc1OC`: 8.31 µM.

Turning to `COc1cc2c3nnc(-c4ccc(C)cc4)c-3cn(Cc3ccc(C)cc3)c2cc1OC`, the concentration giving a half-maximal response (EC50) is 8.86 µM. The value for `CCOc1ccc(-c2nnc3c4cc(OC)c(OC)cc4n(Cc4ccccc4)cc2-3)cc1` was “inactive”; that for `COc1ccc(Cn2c(SCc3cccc(C(F)(F)F)c3)nc3cc(OC)c(OC)cc3c2=N)cc1Cl` was > 40 µM (inactive).

As to `Clc1ccccc1-n1ncc2c(N3CCN(c4ccccc4)CC3)ncnc21`, the EC50 is > 40 µM (inactive). The value for `CC(C)C[C@H](NC(=O)c1cn(-c2ccnc3cc(Cl)ccc23)c(-c2c(Cl)cccc2Cl)n1)C(=O)O` was > 40 µM (inactive); that for `O=S(=O)(c1ccc(-c2csc(N/N=C/c3ccco3)n2)cc1)N1CCCC1` was > 40 µM (inactive). For the molecule `COc1cc2c3nnc(-c4ccc(F)cc4)c-3cn(Cc3ccc(F)cc3)c2cc1OC`, the EC50 is 13.6 µM. The value for `CCN(CC)S(=O)(=O)c1ccc(-c2csc(N/N=C/c3ccco3)n2)cc1` was “inactive”. For the molecule `COc1cc2c3nnc(-c4ccccc4)c-3cn(Cc3ccccc3)c2cc1OC`, the EC50 result is “inactive”. The value for `Cc1cc(Cl)ccc1-n1ncc2c(N3CCN(c4ccccc4)CC3)ncnc21` was > 40 µM (inactive); that for `COc1cc2c3nnc(-c4ccc(Cl)cc4)c-3cn(Cc3ccc(F)cc3)c2cc1OC` was 8.32 µM; that for `COc1ccc(Cn2c(SCc3ccccc3)nc3cc(OC)c(OC)cc3c2=N)cc1Cl` was > 40 µM (inactive). The value for `Cc1ccc(-n2ncc3c(N4CCN(c5ccccc5F)CC4)ncnc32)c(C)c1` was > 40 µM (inactive); that for `CN(C)S(=O)(=O)c1ccc(-c2csc(N/N=C/c3cccs3)n2)cc1` was > 40 µM (inactive); that for `COc1cc2nc(C3CCC3)nc(N3CCN(c4ccccc4C)CC3)c2cc1OC` was > 40 µM (inactive). With `Cc1ccc(C)c(-n2ncc3c(N4CCN(c5ccccc5)CC4)ncnc32)c1`, the EC50 was > 40 µM (inactive). The value for `COc1cccc(OC)c1-c1cc(C(=O)N[C@@H](CC(C)C)C(=O)O)nn1-c1ccnc2cc(Cl)ccc12` was > 40 µM (inactive).
